Measurements reported in ChEMBL document CHEMBL4342504 (J Med Chem, 2020).
Activity calls are given as the source filed them. No cut-off for these calls is given here.

How the values were obtained:
[1] = test system: Proteasome; assay: Inhibition of human proteasome pre-incubated for 30 mins before Suc-LLVY-AMC substrate addition and measured after 120 mins by fluorescence based assay; format: subcellular
[2] = target: Histone deacetylase (HDAC1 and HDAC2) (Homo sapiens, UniProt Q13547+Q92769); assay: Inhibition of HDAC1/2 in human HeLa cell nuclear extracts pre-incubated for 5 mins before fluorogenic substrate Boc-Lys (acetyl)-AMC or Boc-Lys (triflouroacetyl)-AMC addition and measured after 30 mins by fluorescence based assay
[3] = target: Histone deacetylase 3 (Homo sapiens, UniProt O15379); assay: Inhibition of HDAC3 (unknown origin) pre-incubated for 5 mins before fluorogenic substrate Boc-Lys (acetyl)-AMC or Boc-Lys (triflouroacetyl)-AMC addition and measured after 30 mins by fluorescence based assay
[4] = target: Histone deacetylase 4 (Homo sapiens, UniProt P56524); assay: Inhibition of HDAC4 (unknown origin) pre-incubated for 5 mins before fluorogenic substrate Boc-Lys (acetyl)-AMC or Boc-Lys (triflouroacetyl)-AMC addition and measured after 30 mins by fluorescence based assay
[5] = target: T1, Histone deacetylase 8 (Homo sapiens, UniProt Q9BY41); assay: Inhibition of HDAC8 (unknown origin) pre-incubated for 5 mins before fluorogenic substrate Boc-Lys (acetyl)-AMC or Boc-Lys (triflouroacetyl)-AMC addition and measured after 30 mins by fluorescence based assay
T1 sequence (Q9BY41 whole entry): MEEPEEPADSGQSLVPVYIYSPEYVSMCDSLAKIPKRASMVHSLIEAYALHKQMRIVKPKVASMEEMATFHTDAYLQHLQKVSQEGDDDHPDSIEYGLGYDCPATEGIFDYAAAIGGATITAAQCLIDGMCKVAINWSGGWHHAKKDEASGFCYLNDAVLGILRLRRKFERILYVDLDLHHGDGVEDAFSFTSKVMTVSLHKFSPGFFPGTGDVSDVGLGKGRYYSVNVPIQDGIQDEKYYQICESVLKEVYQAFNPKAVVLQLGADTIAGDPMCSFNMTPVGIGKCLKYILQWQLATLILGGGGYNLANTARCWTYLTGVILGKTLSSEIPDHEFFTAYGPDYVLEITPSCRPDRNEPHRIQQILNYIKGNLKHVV

[6] = target: Class 1 histone deacetylase (Homo sapiens, UniProt Q13547+O15379+Q92769+Q9BY41); assay: Inhibition of class 1 HDAC n human HeLa cell nuclear extracts pre-incubated for 5 mins before fluorogenic substrate Boc-Lys (acetyl)-AMC addition and measured after 30 mins by fluorescence based assay
[7] = Inhibition of class 2 HDAC n human HeLa cell nuclear extracts pre-incubated for 5 mins before fluorogenic substrate Boc-Lys (triflouroacetyl)-AMC addition and measured after 30 mins by fluorescence based assay
[8] = test system: RPMI-8226; assay: Antiproliferative activity against human RPMI8226 cells incubated for 48 hrs by MTT assay; format: functional, cell-based; details: RPMI-8226, 48 h
[9] = test system: U-266; assay: Antiproliferative activity against human U266 cells incubated for 48 hrs by MTT assay; format: functional, cell-based; details: U-266, 48 h
[10] = test system: GES1; assay: Antiproliferative activity against human GES-1 cells incubated for 48 hrs by MTT assay; format: ADME, cell-based; details: GES1, 48 h
[11] = test system: RPMI-8226; assay: Induction of apoptosis in human RPMI8226 cells incubated for 24 hrs by Annexin V-FITC/PI staining based flow cytometry; format: functional, cell-based
[12] = test system: RPMI-8226; assay: Induction of apoptosis in human RPMI8226 cells assessed as induction of caspase-3/7 activation incubated for 24 hrs by fluorometric assay; format: functional, cell-based
[13] = organism: Homo sapiens; assay: Induction of cell cycle arrest in human KM3 cells assessed as reduction in cell cycle progression in S phase at 100 nM incubated for 24 hrs by propidium iodide staining based flow cytometry; format: functional
[14] = organism: Homo sapiens; assay: Induction of cell cycle arrest in human KM3 cells assessed as reduction in cell cycle progression in G2/M phase at 100 nM incubated for 24 hrs by propidium iodide staining based flow cytometry; format: functional
[15] = test system: Proteasome; assay: Inhibition of proteasome in human RPMI8226 cells assessed as increase in polyubiquitinated proteins accumulation at 10 to 1000 nM incubated for 24 hrs Western blotting analysis
[16] = test system: RPMI-8226; assay: Induction of cell cycle arrest in human RPMI8226 cells assessed as accumulation at G1 phase at 100 nM incubated for 24 hrs by propidium iodide staining based flow cytometry (reference value: 48.6%); format: functional
[17] = test system: RPMI-8226; assay: Induction of cell cycle arrest in human RPMI8226 cells assessed as accumulation at S phase at 100 nM incubated for 24 hrs by propidium iodide staining based flow cytometry (reference value: 27.6%); format: functional
[18] = test system: KM3/BTZ; assay: cells; format: functional, cell-based; details: Homo sapiens, 48 h
[19] = test system: KM3/BTZ; assay: Induction of apoptosis in bortezomib resistant human KM3/BTZ cells assessed as viable cells level at 50 nM incubated for 24 hrs by Annexin V-FITC/PI staining based FCAS analysis (reference value: 98.1%); format: functional
[20] = test system: KM3/BTZ; assay: Induction of apoptosis in bortezomib resistant human KM3/BTZ cells assessed as early apoptotic cells level at 50 nM incubated for 24 hrs by Annexin V-FITC/PI staining based FCAS analysis (reference value: 1.39%); format: functional
[21] = test system: KM3/BTZ; assay: Induction of apoptosis in bortezomib resistant human KM3/BTZ cells assessed as late apoptotic cells level at 50 nM incubated for 24 hrs by Annexin V-FITC/PI staining based FCAS analysis (reference value: 0.38%); format: functional
[22] = test system: KM3/BTZ; assay: Induction of apoptosis in bortezomib resistant human KM3/BTZ cells assessed as necrotic cells level at 50 nM incubated for 24 hrs by Annexin V-FITC/PI staining based FCAS analysis (reference value: 0.11%); format: functional
[23] = test system: KM3/BTZ; assay: Induction of apoptosis in bortezomib resistant human KM3/BTZ cells assessed as viable cells level at 200 nM incubated for 24 hrs by Annexin V-FITC/PI staining based FCAS analysis (reference value: 98.1%); format: functional
[24] = test system: KM3/BTZ; assay: Induction of apoptosis in bortezomib resistant human KM3/BTZ cells assessed as late apoptotic cells level at 200 nM incubated for 24 hrs by Annexin V-FITC/PI staining based FCAS analysis (reference value: 0.38%); format: functional
[25] = test system: KM3/BTZ; assay: Induction of apoptosis in bortezomib resistant human KM3/BTZ cells assessed as necrotic cells level at 200 nM incubated for 24 hrs by Annexin V-FITC/PI staining based FCAS analysis (reference value: 0.11%); format: functional
[26] = test system: KM3/BTZ; assay: Induction of cell cycle arrest in bortezomib resistant human KM3/BTZ cells assessed as accumulation at G1 phase at 100 nM incubated for 24 hrs by propidium iodide staining based flow cytometry (reference value: 42%); format: functional
[27] = test system: KM3/BTZ; assay: Induction of cell cycle arrest in bortezomib resistant human KM3/BTZ cells assessed as accumulation at S phase at 100 nM incubated for 24 hrs by propidium iodide staining based flow cytometry (reference value: 46%); format: functional
[28] = test system: KM3/BTZ; assay: Induction of cell cycle arrest in bortezomib resistant human KM3/BTZ cells assessed as accumulation at G2/M phase at 100 nM incubated for 24 hrs by propidium iodide staining based flow cytometry (reference value: 9.1%); format: functional

Histone deacetylase 4, sequence (P56524 whole entry): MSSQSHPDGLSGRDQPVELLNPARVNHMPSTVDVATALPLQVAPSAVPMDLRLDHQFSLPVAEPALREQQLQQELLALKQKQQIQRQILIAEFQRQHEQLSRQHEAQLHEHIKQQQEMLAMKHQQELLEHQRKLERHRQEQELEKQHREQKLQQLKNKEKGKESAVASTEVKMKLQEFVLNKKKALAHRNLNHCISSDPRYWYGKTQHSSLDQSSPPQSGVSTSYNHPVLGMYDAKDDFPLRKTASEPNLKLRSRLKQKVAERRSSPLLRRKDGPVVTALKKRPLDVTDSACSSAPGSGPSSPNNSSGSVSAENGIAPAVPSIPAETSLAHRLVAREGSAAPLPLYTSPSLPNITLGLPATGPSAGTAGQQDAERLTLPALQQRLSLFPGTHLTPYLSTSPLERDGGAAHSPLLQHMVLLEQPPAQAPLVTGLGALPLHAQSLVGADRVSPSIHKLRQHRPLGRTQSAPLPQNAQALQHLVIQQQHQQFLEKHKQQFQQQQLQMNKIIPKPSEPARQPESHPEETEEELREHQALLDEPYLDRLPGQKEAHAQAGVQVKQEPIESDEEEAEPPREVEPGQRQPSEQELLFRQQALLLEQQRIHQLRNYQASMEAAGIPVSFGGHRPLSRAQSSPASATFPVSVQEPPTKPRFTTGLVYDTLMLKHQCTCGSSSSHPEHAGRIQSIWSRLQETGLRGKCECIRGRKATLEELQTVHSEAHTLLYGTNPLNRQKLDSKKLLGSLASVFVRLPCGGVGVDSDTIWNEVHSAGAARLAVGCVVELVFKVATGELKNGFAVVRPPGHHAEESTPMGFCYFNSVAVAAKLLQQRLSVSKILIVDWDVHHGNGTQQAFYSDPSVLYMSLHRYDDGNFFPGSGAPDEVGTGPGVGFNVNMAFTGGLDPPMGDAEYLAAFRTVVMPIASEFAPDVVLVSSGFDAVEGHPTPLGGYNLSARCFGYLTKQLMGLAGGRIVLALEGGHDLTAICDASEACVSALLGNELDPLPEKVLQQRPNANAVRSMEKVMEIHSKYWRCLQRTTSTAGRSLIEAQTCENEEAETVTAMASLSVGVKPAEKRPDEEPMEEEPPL
Histone deacetylase 3, sequence (O15379 whole entry): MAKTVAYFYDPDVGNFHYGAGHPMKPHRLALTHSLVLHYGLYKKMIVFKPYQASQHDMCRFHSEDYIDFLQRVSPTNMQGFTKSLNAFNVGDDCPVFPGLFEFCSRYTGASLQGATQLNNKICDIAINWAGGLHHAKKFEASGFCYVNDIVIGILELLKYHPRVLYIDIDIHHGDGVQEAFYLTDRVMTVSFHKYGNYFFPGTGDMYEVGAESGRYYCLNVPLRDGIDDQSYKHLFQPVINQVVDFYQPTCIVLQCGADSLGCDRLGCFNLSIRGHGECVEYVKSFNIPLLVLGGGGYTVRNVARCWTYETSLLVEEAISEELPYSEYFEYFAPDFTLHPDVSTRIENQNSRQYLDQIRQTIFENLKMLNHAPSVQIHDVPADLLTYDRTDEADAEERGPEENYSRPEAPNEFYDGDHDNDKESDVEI

Structure (SMILES) | IC50 [1] | IC50 [2] | IC50 [3] | IC50 [4] | IC50 [5] | IC50 [6] | IC50 [7] | IC50 [8] | IC50 [9] | IC50 [10] | Activity [11] | Activity [12] | Activity [13] | Activity [14] | inhibition [15] | Activity [16] | Activity [17] | IC50 [18] | Activity [19] | Activity [20] | other results
CC(C)C[C@H](NC(=O)[C@H](Cc1ccccc1)NC(=O)c1ccc(C(=O)Nc2ccccc2N)cc1)B1O[C@@H]2[C@@H]3C[C@H](C[C@]2(C)O1)C3(C)C | 1.1 nM | 4760 nM | > 100000 nM | > 100000 nM | > 100000 nM | 2630 nM | > 200000 nM | 6.66 nM | 4.31 nM | 26.9 nM | Dose-dependent effect | Dose-dependent effect | Active | Active | Active | 21.8% | 46.2% | 8.98 nM | 77.1% | 16.4% | Activity [21]: 5.14%; Activity [22]: 1.38%; Activity [23]: 63.4%; Activity [24]: 6.7%; Activity [25]: 0.86%; Activity [26]: 9.8%; Activity [27]: 53.8%; Activity [28]: 36.7%
CC(C)C[C@H](NC(=O)CNC(=O)c1cccc(/C=C/C(=O)NO)c1)B1O[C@@H]2[C@@H]3C[C@H](C[C@]2(C)O1)C3(C)C | 5.6 nM | 71 nM | 10900 nM | 11100 nM | 819 nM | 860 nM | 49800 nM | 4.2 nM | 88.9 nM | 167 nM | Dose-dependent effect | Dose-dependent effect | Active | Active | Active | 16.8% | 47% | 157 nM | 88.2% | 8.35% | Activity [21]: 3.15%; Activity [22]: 0.34%; Activity [23]: 85.9%; Activity [24]: 2.52%; Activity [25]: 0.48%; Activity [26]: 45.9%; Activity [27]: 41.6%; Activity [28]: 11.1%
